From PubChem BioAssay (NCI)
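96-well plates; 48 h exposure; 5 concentrations. Endpoints by linear interpolation between flanking doses. Not reached: highest tested concentration assigned. GI50 is the concentration that inhibits growth by half. Definition used: TGI = concentration required for complete inhibition of growth.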

How the values were obtained:
Experiment in all cases: growth of human tumour cells (NCI), 48 h
COLO 205 colon = system: COLO 205 colon
SK-OV-3 ovarian = system: SK-OV-3 ovarian
OVCAR-8 ovarian = system: OVCAR-8 ovarian
786-0 renal = system: 786-0 renal
SNB-75 CNS = system: SNB-75 CNS
HL-60(TB) leukemia = system: HL-60(TB) leukemia
HCT-15 colon = system: HCT-15 colon
T-47D breast = system: T-47D breast
OVCAR-3 ovarian = system: OVCAR-3 ovarian
SF-539 CNS = system: SF-539 CNS
OVCAR-4 ovarian = system: OVCAR-4 ovarian
M14 melanoma = system: M14 melanoma
SK-MEL-2 melanoma = system: SK-MEL-2 melanoma
A549 NSCLC = system: A549 NSCLC
SR leukemia = system: SR leukemia
SN12C renal = system: SN12C renal
KM12 colon = system: KM12 colon
SF-268 CNS = system: SF-268 CNS
SW-620 colon = system: SW-620 colon
RPMI-8226 leukemia = system: RPMI-8226 leukemia
A498 renal = system: A498 renal
PC-3 prostate = system: PC-3 prostate
TK-10 renal = system: TK-10 renal
HCC-2998 colon = system: HCC-2998 colon
MDA-MB-435 = system: MDA-MB-435
CAKI-1 renal = system: CAKI-1 renal
HCT-116 colon = system: HCT-116 colon
HT29 colon = system: HT29 colon
HS 578T breast = system: HS 578T breast
IGROV1 ovarian = system: IGROV1 ovarian
UACC-62 melanoma = system: UACC-62 melanoma
SF-295 CNS = system: SF-295 CNS
U251 CNS = system: U251 CNS
HOP-62 NSCLC = system: HOP-62 NSCLC
NCI-H522 lung = system: NCI-H522 lung
NCI-H23 lung = system: NCI-H23 lung
SNB-19 CNS = system: SNB-19 CNS
HOP-92 NSCLC = system: HOP-92 NSCLC
SK-MEL-28 melanoma = system: SK-MEL-28 melanoma
K-562 leukemia = system: K-562 leukemia
NCI-H226 lung = system: NCI-H226 lung
MDA-MB-231 breast = system: MDA-MB-231 breast
NCI/ADR-RES ovarian = system: NCI/ADR-RES ovarian
UACC-257 melanoma = system: UACC-257 melanoma
MCF7 breast = system: MCF7 breast
UO-31 renal = system: UO-31 renal
ACHN renal = system: ACHN renal
OVCAR-5 ovarian = system: OVCAR-5 ovarian
CCRF-CEM leukemia = system: CCRF-CEM leukemia
MOLT-4 leukemia = system: MOLT-4 leukemia
RXF 393 renal = system: RXF 393 renal
SK-MEL-5 melanoma = system: SK-MEL-5 melanoma
LOX IMVI melanoma = system: LOX IMVI melanoma
EKVX NSCLC = system: EKVX NSCLC
DU-145 prostate = system: DU-145 prostate
NCI-H460 lung = system: NCI-H460 lung
BT-549 breast = system: BT-549 breast
MALME-3M melanoma = system: MALME-3M melanoma

`CC(C)C(=O)Nc1ccc(-c2nc(-c3cccc(O)c3)c(-c3ccnc(Br)c3)[nH]2)cc1` gave a GI50 (COLO 205 colon) of 1.47 µM, a TGI (COLO 205 colon) of 6.94 µM and a GI50 (SK-OV-3 ovarian) of 1.89 µM. The TGI (SK-OV-3 ovarian) was 10.6 µM, the GI50 (OVCAR-8 ovarian) was 1.28 µM and the TGI (OVCAR-8 ovarian) was 18.6 µM. It also gave a GI50 (786-0 renal) of 0.718 µM, a TGI (786-0 renal) of 7.63 µM and a GI50 (SNB-75 CNS) of 0.529 µM. It also gave a TGI (SNB-75 CNS) of 2.6 µM, a GI50 (HL-60(TB) leukemia) of 0.768 µM and a TGI (HL-60(TB) leukemia) of 2.74 µM. The GI50 (HCT-15 colon) was 1.26 µM, the TGI (HCT-15 colon) was 9.76 µM and the GI50 (T-47D breast) was 1.09 µM. It also gave a TGI (T-47D breast) of 9.59 µM, a GI50 (OVCAR-3 ovarian) of 1.09 µM and a TGI (OVCAR-3 ovarian) of 6.6 µM. It also gave a GI50 (SF-539 CNS) of 0.685 µM, a TGI (SF-539 CNS) of 2.89 µM and a GI50 (OVCAR-4 ovarian) of 2.85 µM. For the same compound, the TGI (OVCAR-4 ovarian) was 27.7 µM, the GI50 (M14 melanoma) was 0.764 µM and the TGI (M14 melanoma) was 8.13 µM. The GI50 (SK-MEL-2 melanoma) was 1.64 µM, the TGI (SK-MEL-2 melanoma) was 9.81 µM and the GI50 (A549 NSCLC) was 1.64 µM. The TGI (A549 NSCLC) was 23.6 µM, the GI50 (SR leukemia) was 1.19 µM and the TGI (SR leukemia) was > 100 µM. The GI50 (SN12C renal) was 1.49 µM, the TGI (SN12C renal) was 34.8 µM and the GI50 (KM12 colon) was 1.29 µM. The TGI (KM12 colon) was 21.7 µM, the GI50 (SF-268 CNS) was 2.83 µM and the TGI (SF-268 CNS) was 40 µM. It also gave a GI50 (SW-620 colon) of 1.4 µM, a TGI (SW-620 colon) of 16.2 µM and a GI50 (RPMI-8226 leukemia) of 0.83 µM. The TGI (RPMI-8226 leukemia) was 2.43 µM, the GI50 (A498 renal) was 0.957 µM and the TGI (A498 renal) was 5.55 µM. The GI50 (PC-3 prostate) was 0.877 µM, the TGI (PC-3 prostate) was 8.21 µM and the GI50 (TK-10 renal) was 5.88 µM. The TGI (TK-10 renal) was 36.8 µM, the GI50 (HCC-2998 colon) was 1.38 µM and the TGI (HCC-2998 colon) was 6.71 µM. For the same compound, the GI50 (MDA-MB-435) was 4.24 µM, the TGI (MDA-MB-435) was 20.6 µM and the GI50 (CAKI-1 renal) was 0.932 µM. The TGI (CAKI-1 renal) was 9.12 µM, the GI50 (HCT-116 colon) was 0.905 µM and the TGI (HCT-116 colon) was 7.68 µM. For the same compound, the GI50 (HT29 colon) was 1.4 µM, the TGI (HT29 colon) was > 60.1 µM and the GI50 (HS 578T breast) was 0.592 µM. It also gave a TGI (HS 578T breast) of 2.32 µM, a GI50 (IGROV1 ovarian) of 0.962 µM and a TGI (IGROV1 ovarian) of 5.83 µM. For the same compound, the GI50 (UACC-62 melanoma) was 0.758 µM, the TGI (UACC-62 melanoma) was 5.37 µM and the GI50 (SF-295 CNS) was 0.204 µM. It also gave a TGI (SF-295 CNS) of 0.457 µM, a GI50 (U251 CNS) of 1.1 µM and a TGI (U251 CNS) of 47.9 µM. It also gave a GI50 (HOP-62 NSCLC) of 1.82 µM, a TGI (HOP-62 NSCLC) of 35.2 µM and a GI50 (NCI-H522 lung) of 1.24 µM. For the same compound, the TGI (NCI-H522 lung) was 9.03 µM, the GI50 (NCI-H23 lung) was 1.19 µM and the TGI (NCI-H23 lung) was 12.9 µM. For the same compound, the GI50 (SNB-19 CNS) was 1.47 µM, the TGI (SNB-19 CNS) was 61.2 µM and the GI50 (HOP-92 NSCLC) was 2.17 µM. The TGI (HOP-92 NSCLC) was 7.27 µM, the GI50 (SK-MEL-28 melanoma) was 1.75 µM and the TGI (SK-MEL-28 melanoma) was 23.5 µM. For the same compound, the GI50 (K-562 leukemia) was 0.601 µM, the TGI (K-562 leukemia) was > 100 µM and the GI50 (NCI-H226 lung) was 1.78 µM. It also gave a TGI (NCI-H226 lung) of 8.95 µM, a GI50 (MDA-MB-231 breast) of 1.61 µM and a TGI (MDA-MB-231 breast) of 36.3 µM. The GI50 (NCI/ADR-RES ovarian) was 18 µM, the TGI (NCI/ADR-RES ovarian) was > 100 µM and the GI50 (UACC-257 melanoma) was 3.47 µM. The TGI (UACC-257 melanoma) was 24.2 µM, the GI50 (MCF7 breast) was 0.566 µM and the TGI (MCF7 breast) was 4.51 µM. The GI50 (UO-31 renal) was 1.04 µM, the TGI (UO-31 renal) was 4.59 µM and the GI50 (ACHN renal) was 1.7 µM. It also gave a TGI (ACHN renal) of 26.6 µM, a GI50 (OVCAR-5 ovarian) of 2.36 µM and a TGI (OVCAR-5 ovarian) of 59.1 µM. For the same compound, the GI50 (CCRF-CEM leukemia) was 0.653 µM, the TGI (CCRF-CEM leukemia) was > 100 µM and the GI50 (MOLT-4 leukemia) was 0.835 µM. It also gave a TGI (MOLT-4 leukemia) of 7.98 µM, a GI50 (RXF 393 renal) of 0.37 µM and a TGI (RXF 393 renal) of 1.32 µM. For the same compound, the GI50 (SK-MEL-5 melanoma) was 1.1 µM, the TGI (SK-MEL-5 melanoma) was 3.24 µM and the GI50 (LOX IMVI melanoma) was 0.404 µM. It also gave a TGI (LOX IMVI melanoma) of 5.71 µM, a GI50 (EKVX NSCLC) of 1.84 µM and a TGI (EKVX NSCLC) of 25.6 µM. For the same compound, the GI50 (DU-145 prostate) was 2.54 µM, the TGI (DU-145 prostate) was 41.3 µM and the GI50 (NCI-H460 lung) was 1.45 µM. The TGI (NCI-H460 lung) was 9.01 µM, the GI50 (BT-549 breast) was 1.09 µM and the TGI (BT-549 breast) was 7.25 µM. For the same compound, the GI50 (MALME-3M melanoma) was 0.919 µM and the TGI (MALME-3M melanoma) was 4.9 µM.
